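48-hour exposure; five concentrations; linearly interpolated endpoints. The concentration for 50% growth inhibition is given as GI50.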 Active and inactive are the calls of the source. Cut-off read from the data, not from the text of the source: active = GI50 up to about 1.1 µM and inactive = higher. Where a SMILES comes first, the peptide text is derived from it.
How the values were obtained:
Test in all cases: inhibition of tumour cell growth, NCI panel, 48 h
RPMI-8226 = system: RPMI-8226
NCI-H226 = system: NCI-H226
SK-MEL-2 = system: SK-MEL-2
SN12C = system: SN12C
SK-MEL-5 = system: SK-MEL-5
HCT-15 = system: HCT-15
NCI-H522 = system: NCI-H522
OVCAR-8 = system: OVCAR-8
NCI/ADR-RES = system: NCI/ADR-RES
SF-295 = system: SF-295
DU-145 = system: DU-145
Malme-3M = system: Malme-3M
U-251 = system: U-251
OVCAR-5 = system: OVCAR-5
Hs-578T = system: Hs-578T
NCI-H23 = system: NCI-H23
SNB-75 = system: SNB-75
HCC 2998 = system: HCC 2998
A498 = system: A498
HOP-92 = system: HOP-92
T47D = system: T47D
CCRF-CEM = system: CCRF-CEM
MCF7 = system: MCF7
UACC-62 = system: UACC-62
COLO 205 = system: COLO 205
IGROV-1 = system: IGROV-1
SK-OV-3 = system: SK-OV-3
K562 = system: K562
HT-29 = system: HT-29
CAKI-1 = system: CAKI-1
HOP-62 = system: HOP-62
PC-3 = system: PC-3
NCI-H460 = system: NCI-H460
MDA-MB-435 = system: MDA-MB-435
M14 = system: M14
MDA-N = system: MDA-N
MDA-MB-231 = system: MDA-MB-231
HL-60 = system: HL-60
RXF 393 = system: RXF 393
OVCAR-3 = system: OVCAR-3
UO-31 = system: UO-31
MOLT-4 = system: MOLT-4
SNB-19 = system: SNB-19
BT-549 = system: BT-549
SK-MEL-28 = system: SK-MEL-28
KM12 = system: KM12
SR = system: SR
HCT-116 = system: HCT-116
786-0 = system: 786-0
A549 = system: A549
TK-10 = system: TK-10
SF-268 = system: SF-268
EKVX = system: EKVX
ACHN = system: ACHN
OVCAR-4 = system: OVCAR-4
UACC-257 = system: UACC-257
SF-539 = system: SF-539

CN(C)C(=S)/N=C1\SC(=N\c2ccccc2)/C(=N/c2ccccc2)N1c1ccc([N+](=O)[O-])cc1
GI50 (RPMI-8226): > 100 µM (inactive)
GI50 (NCI-H226): > 100 µM (inactive)
GI50 (SK-MEL-2): > 100 µM (inactive)
GI50 (SN12C): > 100 µM (inactive)
GI50 (SK-MEL-5): > 100 µM (inactive)
GI50 (HCT-15): > 100 µM
GI50 (NCI-H522): > 100 µM (inactive)
GI50 (OVCAR-8): > 100 µM (inactive)
GI50 (NCI/ADR-RES): > 100 µM (inactive)
GI50 (SF-295): > 100 µM (inactive)
GI50 (DU-145): > 100 µM (inactive)
GI50 (Malme-3M): > 100 µM (inactive)
GI50 (U-251): > 100 µM (inactive)
GI50 (OVCAR-5): > 100 µM (inactive)
GI50 (Hs-578T): > 100 µM (inactive)
GI50 (NCI-H23): > 100 µM (inactive)
GI50 (SNB-75): > 100 µM (inactive)
GI50 (HCC 2998): > 100 µM (inactive)
GI50 (A498): > 100 µM (inactive)
GI50 (HOP-92): > 100 µM (inactive)
GI50 (T47D): > 100 µM (inactive)
GI50 (CCRF-CEM): > 100 µM (inactive)
GI50 (MCF7): > 100 µM (inactive)
GI50 (UACC-62): > 100 µM (inactive)
GI50 (COLO 205): > 100 µM (inactive)
GI50 (IGROV-1): > 100 µM (inactive)
GI50 (SK-OV-3): > 100 µM (inactive)
GI50 (K562): > 100 µM (inactive)
GI50 (HT-29): > 100 µM (inactive)
GI50 (CAKI-1): > 100 µM (inactive)
GI50 (HOP-62): > 100 µM (inactive)
GI50 (PC-3): 8.32 µM (inactive)
GI50 (NCI-H460): > 100 µM (inactive)
GI50 (MDA-MB-435): > 100 µM (inactive)
GI50 (M14): > 100 µM (inactive)
GI50 (MDA-N): > 100 µM (inactive)
GI50 (MDA-MB-231): > 100 µM (inactive)
GI50 (HL-60): > 100 µM (inactive)
GI50 (RXF 393): 21.8 µM (inactive)
GI50 (OVCAR-3): > 100 µM (inactive)
GI50 (UO-31): > 100 µM (inactive)
GI50 (MOLT-4): 38.5 µM (inactive)
GI50 (SNB-19): > 100 µM (inactive)
GI50 (BT-549): > 100 µM (inactive)
GI50 (SK-MEL-28): > 100 µM (inactive)
GI50 (KM12): > 100 µM (inactive)
GI50 (SR): > 100 µM (inactive)
GI50 (HCT-116): > 100 µM (inactive)

CC(C)CC(NC(=O)C(Cc1ccccc1)NC(=O)C(Cc1c[nH]c2ccccc12)NC(=O)CNC(=O)C(N)Cc1ccc(O)cc1)C(=O)O (centres undefined) (H-YGWFL-OH; configuration not given here)
GI50 (RPMI-8226): 24.5 µM (inactive)
GI50 (NCI-H226): 46.8 µM (inactive)
GI50 (786-0): 23.6 µM (inactive)
GI50 (SK-MEL-2): 81.3 µM (inactive)
GI50 (SN12C): 48.6 µM (inactive)
GI50 (SK-MEL-5): 29 µM (inactive)
GI50 (HCT-15): 69 µM
GI50 (NCI-H522): 34 µM (inactive)
GI50 (OVCAR-8): 46.5 µM (inactive)
GI50 (A549): 37.4 µM (inactive)
GI50 (NCI/ADR-RES): 67.6 µM (inactive)
GI50 (SF-295): 49.7 µM (inactive)
GI50 (DU-145): 31.8 µM (inactive)
GI50 (Malme-3M): 21.2 µM (inactive)
GI50 (U-251): 34.6 µM (inactive)
GI50 (TK-10): 78.7 µM (inactive)
GI50 (OVCAR-5): > 100 µM (inactive)
GI50 (Hs-578T): 42 µM (inactive)
GI50 (NCI-H23): 30.1 µM (inactive)
GI50 (SNB-75): 30.8 µM (inactive)
GI50 (HCC 2998): 34.3 µM (inactive)
GI50 (A498): 32.3 µM (inactive)
GI50 (HOP-92): 14 µM (inactive)
GI50 (T47D): 25.6 µM (inactive)
GI50 (CCRF-CEM): 42.6 µM (inactive)
GI50 (SF-268): 47.3 µM (inactive)
GI50 (EKVX): 35.2 µM (inactive)
GI50 (ACHN): 44.5 µM (inactive)
GI50 (MCF7): 37.4 µM (inactive)
GI50 (UACC-62): 67.3 µM (inactive)
GI50 (COLO 205): 16.4 µM (inactive)
GI50 (IGROV-1): 58.7 µM (inactive)
GI50 (SK-OV-3): > 100 µM (inactive)
GI50 (OVCAR-4): 30.2 µM (inactive)
GI50 (HT-29): 30.8 µM (inactive)
GI50 (CAKI-1): 34.9 µM (inactive)
GI50 (HOP-62): 46.5 µM (inactive)
GI50 (UACC-257): 41.2 µM (inactive)
GI50 (PC-3): 44.7 µM (inactive)
GI50 (NCI-H460): 44.4 µM (inactive)
GI50 (MDA-MB-435): 34.9 µM (inactive)
GI50 (SF-539): 33.8 µM (inactive)
GI50 (M14): 47.6 µM (inactive)
GI50 (MDA-N): 35.4 µM (inactive)
GI50 (MDA-MB-231): 52.1 µM (inactive)
GI50 (HL-60): 24.3 µM (inactive)
GI50 (RXF 393): 40.3 µM (inactive)
GI50 (OVCAR-3): 23.2 µM (inactive)
GI50 (UO-31): 81.3 µM (inactive)
GI50 (MOLT-4): 59.7 µM (inactive)
GI50 (SNB-19): 51.6 µM (inactive)
GI50 (BT-549): > 100 µM (inactive)
GI50 (SK-MEL-28): 95.3 µM (inactive)
GI50 (KM12): 24.6 µM (inactive)
GI50 (SR): 32.4 µM (inactive)
GI50 (HCT-116): 27.4 µM (inactive)

From ChEMBL document CHEMBL1201862, “PubChem BioAssay data set” (2004)
